Where “and” joins values, the source holds several entries; their conditions need not be identical. Equal entries are not always repeated. No end group written: not given here. *: point of attachment. Palmitoyl = CCCCCCCCCCCCCCCC(=O)*
Tested on: Antioxidant Response Element (ARE)
Test: ARE Assay (ARE-32 luciferase reporter cell line)
Format: cell-based
Source text: This method provides a way to quantitate ARE activation using the ARE-32 reporter cell line available from CXR Biosciences. The ARE-32 cell line is a stable MCF7 cell line containing pGL8x-ARE (8 copies of the rat GST ARE linked to the luciferase gene) and pCDNA3.1, which contains the neomycin selectable marker. A detailed description of the ARE-32 cell line and its development and use can be found in “Generation of a Stable Antioxidant Response Element-Driven Reporter Gene Cell Line and Its Use to Show Redox-Dependent Activation of Nrf2 by Cancer Chemotherapeutic Agents.” Cancer Res 2006; 66(22): 10983-94. A general schematic for how an ARE reporter assay operates to identify agents that promote transcription off the ARE is described in U.S. Publication No. 2011/0262570.
The ARE Assay uses expanded and cryopreserved passaged stocks. The cells are expanded over 4-5 days in culture flasks and passaged every 3-4 days, when cells are approximately 80% confluent. When cells are >70% confluent or ready to seed into 96 well plates, the cells are trypsinized, seeded and grown in 96-well plates. After growing for 1 day in 96-well plates, the media is replaced with fresh treatment media (phenol red free, no FBS) and cells are treated with compounds and incubated overnight (24 hours). Post treatment, cells are rinsed with 1×PBS, lysed and receive the luciferase kit reagent and luminescence is measured.
Frozen AREC32 cells (frozen in 90% FBS and 10% DMSO) are quickly thawed and placed in a 50 ml conical tube with 25 ml plating media. Centrifuge at 1500-2000 RPM for 5 minutes. Remove media without disturbing cell pellet. Re-suspend cells in 12 ml media and add to T-75 tissue culture flask. Cells should be at >80% confluency in 4-5 days and can be split 1:3 into T-150 flasks to grow cells for seeding plates if more cells are needed.
Cells are maintained and plated in 96-well plates with plating media. Subculture (passage cells) every 3-4 days or when ˜75-80% confluent. To passage cells, aspirate media from flask and add 6 ml 0.25% trypsin. Tilt flask in all directions to distribute the trypsin over the bottom of the flask and place in incubator. After 2-3 minutes observe cells under microscope to see if detached. If cells have not detached completely place in incubator for an additional 2-3 minutes. Once detached, add 6 ml maintenance media to neutralize trypsin and pipet into centrifuge tube. Centrifuge at 1200 RPM for 5 minutes. Remove media without disturbing cell pellet. Re-suspend pellet in 12 ml maintenance media and add to flask. If splitting or detaching cells from a T-150 flask double all volumes and follow same procedures.
Aspirate media from flask and add appropriate volume of 0.25% trypsin depending on size of flask (6 ml for T-75 and 12 ml for T-150 flask). Swirl flask to distribute trypsin on bottom of flask and return to incubator for 2-3 minutes. Observe cells under microscope. If cells have not detached completely place in incubator for an additional 2-3 minutes. Once cells are detached add DMEM equal to the volume of trypsin, mix gently and place in centrifuge tube. Centrifuge at […] for 5 minutes. Aspirate media without disturbing cell pellet. Re-suspend pellet in 10 ml DMEM. Dilute the cells 1:5 using 50 μl cells+200 μl DMEM. Use 20 μl of this dilution and 20 μl 0.4% trypan blue. Mix and add 10 μl/chamber to disposable hemocytometer and insert into Countess II Instrument. Non-viable cells will be blue, viable cells will be unstained. Cell seeding density may vary from ˜10,000 cells/well or more depending on cell passage growth. Cell density should be approx. 70-80% on day of treatment/dosing. […] Media must be free of phenol red.
Tert-Butylhydroquinone (tBHQ) (Aldrich, Cat #11,294-1). Prepare 100 mM stock (1M=166.21 mg/ml; 100 mM=16.62 mg/ml). Dilute to 750 μM (1:133) using 30 μl of 100 mM tBHQ and […] treatment media. 2 μl of positive control should yield a final concentration of 7.5 μM in the test well. […]

NC(=O)c1cccnc1 [N, niacinamide, reference compound]
Average Net Luminescence N (N 1 ppm alone): 8
Average Net Luminescence N (N 10 ppm alone): 12
Average Net Luminescence N (N 50 ppm alone): 45
Average Net Luminescence N (N 500 ppm alone): 53
Average Net Luminescence N (Table 3, N 500 ppm alone): 45

acetyl tetrapeptide-11 (Ac-PPYL)
Average Net Luminescence Ac-PPYL (Ac-PPYL 0.05 ppm alone): 12 and 19.4 and 20
Average Net Luminescence Ac-PPYL (Ac-PPYL 0.1 ppm alone): 22 and 15.7
Average Net Luminescence Ac-PPYL (Ac-PPYL 0.5 ppm alone): 14.7 and 26
Average Net Luminescence Ac-PPYL (Ac-PPYL 1 ppm alone): 56 and 51
Average Net Luminescence Ac-PPYL (Ac-PPYL 2 ppm alone): 64 and 61
Average Net Luminescence Ac-PPYL (Table 3, Ac-ppyl 2 ppm alone): 57

palmitoyl pentapeptide-4 (Palmitoyl-KTTKS) [Pal-KTTKS]
Average Net Luminescence Pal-kttks (Pal-KTTKS 1 ppm alone): 24.3
Average Net Luminescence Pal-kttks (Table 3, Pal-kttks 1 ppm alone): 21
